For 18 compounds, EC50 results are on record in US20250136606A1, “MODULATORS OF TRPML, THEIR COMPOSITIONS AND METHODS OF USE” (Caraway Therapeutics, Inc., priority 2021, published 2025).

The structures appear in SMILES notation. Some results are limits rather than exact numbers.

What is called EC50 is the concentration needed to bring the measured effect to its halfway point.

What all share (type): cell-based
Experiment [1] addresses TRPML1 (Homo sapiens, UniProt Q9GZU1). The experiment can be described thus: Fluorescent TRPML1 assay (Fluo4-AM calcium fluorescence in doxycycline-induced HEK-293 Trex cells). An outline of the steps: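 HEK-293 Trex cells stably expressing surface-directed mutant human TRPML1, induced with 0.5 µg/mL doxycycline overnight, were loaded with 1 µM Fluo4-AM and added to compound (6 nM–20 µM final, half-log steps, triplicate) in Ringer's with 10 mM calcium. Fluorescence ex 480/em 540; EC50 by non-linear regression versus plate controls.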

Experiment [2] has as its target T1, TRPML2 (Homo sapiens, UniProt Q8IZK6).
T1 construct: expressed in transfected cells
T1 sequence (Q8IZK6 1-566): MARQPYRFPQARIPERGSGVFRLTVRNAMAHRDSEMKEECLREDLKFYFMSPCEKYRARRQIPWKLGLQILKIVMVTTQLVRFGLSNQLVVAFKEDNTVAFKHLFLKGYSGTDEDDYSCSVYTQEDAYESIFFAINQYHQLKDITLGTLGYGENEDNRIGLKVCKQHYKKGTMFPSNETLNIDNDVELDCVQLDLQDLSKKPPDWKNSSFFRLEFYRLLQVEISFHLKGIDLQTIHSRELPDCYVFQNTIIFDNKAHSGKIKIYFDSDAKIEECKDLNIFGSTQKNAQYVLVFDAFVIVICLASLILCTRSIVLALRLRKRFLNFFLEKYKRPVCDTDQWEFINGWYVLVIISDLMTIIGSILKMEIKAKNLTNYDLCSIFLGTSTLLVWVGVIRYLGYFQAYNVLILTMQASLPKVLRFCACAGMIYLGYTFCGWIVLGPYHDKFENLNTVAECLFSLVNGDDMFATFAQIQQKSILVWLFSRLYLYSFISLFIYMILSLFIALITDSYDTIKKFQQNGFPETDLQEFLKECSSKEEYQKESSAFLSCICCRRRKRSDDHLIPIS
The experiment can be described thus: Fluorescent TRPML2 assay (performed as for TRPML1, substituting the TRPML2 subtype). An outline of the steps:
(§1)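 HEK-293 Trex, dox-induced (0.5 ug/mL), mutated for surface expression. Fluo4-AM 1 micromolar load ~60 min, dark; buffer modified Ringer's, 10 mM Ca. Cpds 20 micromolar–6 nanomolar final, half-log, n=3. Read ex 480/em 540; % activity vs controls; EC50 nonlinear fit.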

Experiment [3] concerns the target T2, TRPML3 (Homo sapiens, UniProt Q8TDD5).
T2 construct: expressed in transfected cells
T2 sequence (Q8TDD5 1-553): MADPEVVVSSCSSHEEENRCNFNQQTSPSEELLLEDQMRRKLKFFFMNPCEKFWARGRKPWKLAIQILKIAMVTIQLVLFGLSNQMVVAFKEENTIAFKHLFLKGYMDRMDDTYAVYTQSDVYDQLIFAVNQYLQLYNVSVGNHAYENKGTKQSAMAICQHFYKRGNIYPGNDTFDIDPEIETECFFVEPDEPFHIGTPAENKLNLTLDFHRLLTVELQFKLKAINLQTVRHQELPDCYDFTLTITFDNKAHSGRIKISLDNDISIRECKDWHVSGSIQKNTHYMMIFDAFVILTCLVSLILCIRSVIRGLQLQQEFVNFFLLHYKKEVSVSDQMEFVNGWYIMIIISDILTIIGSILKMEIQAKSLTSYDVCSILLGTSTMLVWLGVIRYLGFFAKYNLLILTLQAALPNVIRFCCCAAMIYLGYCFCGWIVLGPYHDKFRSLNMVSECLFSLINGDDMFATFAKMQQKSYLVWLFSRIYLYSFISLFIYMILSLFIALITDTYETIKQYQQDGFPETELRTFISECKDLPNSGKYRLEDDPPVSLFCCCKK
The experiment can be described thus: Fluorescent TRPML3 assay (performed as for TRPML1, substituting the TRPML3 subtype). An outline of the steps: as §1

TRPML1, sequence (Q9GZU1 whole entry L15A/L16A/L577A/L578A, form open): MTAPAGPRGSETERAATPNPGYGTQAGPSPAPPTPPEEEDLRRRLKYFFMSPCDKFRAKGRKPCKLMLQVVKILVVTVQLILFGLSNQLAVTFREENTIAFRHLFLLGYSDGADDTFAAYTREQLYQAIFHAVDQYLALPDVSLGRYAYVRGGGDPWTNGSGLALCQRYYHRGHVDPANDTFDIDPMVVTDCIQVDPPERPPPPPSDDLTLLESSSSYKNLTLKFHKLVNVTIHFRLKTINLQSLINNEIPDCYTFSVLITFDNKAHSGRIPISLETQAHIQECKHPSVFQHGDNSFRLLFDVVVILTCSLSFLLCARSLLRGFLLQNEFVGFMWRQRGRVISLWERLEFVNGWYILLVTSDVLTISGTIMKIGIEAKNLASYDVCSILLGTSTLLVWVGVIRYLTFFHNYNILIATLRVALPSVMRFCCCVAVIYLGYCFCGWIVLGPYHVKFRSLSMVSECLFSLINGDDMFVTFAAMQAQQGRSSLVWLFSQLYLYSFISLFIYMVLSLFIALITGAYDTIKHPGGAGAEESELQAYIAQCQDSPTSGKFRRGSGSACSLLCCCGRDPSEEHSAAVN

With `C[C@@H]1CN(c2ncnc3c2c(C2CC2)cn3-c2cccc(Cl)c2)[C@@H](C)CN1C(=O)OC1(C)CC1` [Compound 654, 1-methylcyclopropyl (2R,5S)-4-(7-(3-chlorophenyl)-5-cyclopropyl-7H-pyrrolo[2,3-d]pyrimidin-4-yl)-2,5-dimethylpiperazine-1-carboxylate], the EC50 in experiment [1] was 100 to 500 nM; in experiment [2] it was > 2000 nM; in experiment [3], < 100 nM.

Consider `C[C@@H]1CN(c2ncnc3c2c(C2CC2)cn3-c2cc(F)cc(F)c2)[C@@H](C)CN1C(=O)OC1(C)CC1` [Compound 655, 1-methylcyclopropyl (2R,5S)-4-(5-cyclopropyl-7-(3,5-difluorophenyl)-7H-pyrrolo[2,3-d]pyrimidin-4-yl)-2,5-dimethylpiperazine-1-carboxylate], for which the EC50 in experiment [1] was < 100 nM; in experiment [2] it was < 100 nM; in experiment [3], 100 to 500 nM.

In the case of `C[C@@H]1CN(c2ncnc3c2c(C2CC2)cn3-c2cccc(F)c2)CCN1C(=O)OC(C)(C)C` [Compound 656, tert-butyl (R)-4-(5-cyclopropyl-7-(3-fluorophenyl)-7H-pyrrolo[2,3-d]pyrimidin-4-yl)-2-methylpiperazine-1-carboxylate], the EC50 in experiment [1] is < 100 nM; in experiment [2], 100 to 500 nM; in experiment [3] it was < 100 nM.

For the compound `C[C@@H]1CN(c2ncnc3c2c(C2CC2)cn3-c2cccc(F)c2)[C@@H](C)CN1C(=O)OC(C)(C)C` [Compound 657, tert-butyl (2R,5S)-4-(5-cyclopropyl-7-(3-fluorophenyl)-7H-pyrrolo[2,3-d]pyrimidin-4-yl)-2,5-dimethylpiperazine-1-carboxylate], the EC50 in experiment [1], in experiment [2] and in experiment [3] was < 100 nM throughout.

In the case of `C[C@@H]1CN(c2ncnc3c2c(C2CC2)cn3-c2cccc(F)c2)[C@@H](C)CN1C(=O)OC1(C)CC1` [Compound 658, 1-methylcyclopropyl (2R,5S)-4-(5-cyclopropyl-7-(3-fluorophenyl)-7H-pyrrolo[2,3-d]pyrimidin-4-yl)-2,5-dimethylpiperazine-1-carboxylate], the EC50 was < 100 nM in experiment [1], 500 to 2000 nM in experiment [2] and 100 to 500 nM in experiment [3].

For `C[C@@H]1CN(c2ncnc3c2c(C(F)(F)F)cn3-c2cc(F)ccn2)[C@@H](C)CN1C(=O)OC1(C)CC1` [Compound 659, 1-methylcyclopropyl (2R,5S)-4-(7-(4-fluoropyridin-2-yl)-5-(trifluoromethyl)-7H-pyrrolo[2,3-d]pyrimidin-4-yl)-2,5-dimethylpiperazine-1-carboxylate], the concentration for a half-maximal effect (EC50) in experiment [1] is < 100 nM; in experiment [2], > 2000 nM; in experiment [3], 100 to 500 nM.

For the compound `C[C@H]1CN(C(=O)OC2(C)CC2)CCN1c1ncnc2c1c(C(F)(F)F)cn2-c1cccc(Cl)c1` [Compound 660, 1-methylcyclopropyl (S)-4-(7-(3-chlorophenyl)-5-(trifluoromethyl)-7H-pyrrolo[2,3-d]pyrimidin-4-yl)-3-methylpiperazine-1-carboxylate], the EC50 in experiment [1] lay within 100 to 500 nM; in experiment [2] it was 500 to 2000 nM; in experiment [3], 100 to 500 nM.

As for `C[C@@H]1CN(c2ncnc3c2c(C(F)(F)F)cn3-c2cc(F)cc(F)c2)[C@@H](C)CN1C(=O)OC1(C)CC1` [Compound 661, 1-methylcyclopropyl (2R,5S)-4-(7-(3,5-difluorophenyl)-5-(trifluoromethyl)-7H-pyrrolo[2,3-d]pyrimidin-4-yl)-2,5-dimethylpiperazine-1-carboxylate], the EC50 in experiment [1] fell in the range of 100 to 500 nM; in experiment [2] it was 500 to 2000 nM; in experiment [3], 100 to 500 nM.

Regarding `C[C@@H]1CN(c2ncnc3c2c(C(F)(F)F)cn3-c2cncc(C#N)c2)[C@@H](C)CN1C(=O)OC(C)(C)C` [Compound 662, tert-butyl (2R,5S)-4-(7-(5-cyanopyridin-3-yl)-5-(trifluoromethyl)-7H-pyrrolo[2,3-d]pyrimidin-4-yl)-2,5-dimethylpiperazine-1-carboxylate], the EC50 was < 100 nM in experiment [1], 100 to 500 nM in experiment [2] and < 100 nM in experiment [3].

Regarding `C[C@@H]1CN(c2ncnc3c2c(C(F)(F)F)cn3-c2ccccn2)[C@@H](C)CN1C(=O)OC(C)(C)C` [Compound 663, tert-butyl (2R,5S)-2,5-dimethyl-4-(7-(pyridin-2-yl)-5-(trifluoromethyl)-7H-pyrrolo[2,3-d]pyrimidin-4-yl)piperazine-1-carboxylate], the EC50 in experiment [1] is 100 to 500 nM; in experiment [2] it was > 2000 nM; in experiment [3], 100 to 500 nM.

Regarding `COc1ccnc(-n2cc(C(F)(F)F)c3c(N4C[C@@H](C)N(C(=O)OC(C)(C)C)C[C@@H]4C)ncnc32)c1` [Compound 664, tert-butyl (2R,5S)-4-(7-(4-methoxypyridin-2-yl)-5-(trifluoromethyl)-7H-pyrrolo[2,3-d]pyrimidin-4-yl)-2,5-dimethylpiperazine-1-carboxylate], the results for the EC50 in experiment [1], in experiment [2] and in experiment [3] were < 100 nM, 500 to 2000 nM and < 100 nM, respectively.

For `Cc1ccnc(-n2cc(C(F)(F)F)c3c(N4C[C@@H](C)N(C(=O)OC(C)(C)C)C[C@@H]4C)ncnc32)c1` [Compound 665, tert-butyl (2R,5S)-2,5-dimethyl-4-(7-(4-methylpyridin-2-yl)-5-(trifluoromethyl)-7H-pyrrolo[2,3-d]pyrimidin-4-yl)piperazine-1-carboxylate], the EC50 is < 100 nM in experiment [1], 500 to 2000 nM in experiment [2] and < 100 nM in experiment [3].

For the compound `Cc1cn(-c2cccc(F)c2)c2ncnc(N3C[C@@H](C)N(C(=O)OC(C)(C)C)C[C@@H]3C)c12` [Compound 666, tert-butyl (2R,5S)-4-(7-(3-fluorophenyl)-5-methyl-7H-pyrrolo[2,3-d]pyrimidin-4-yl)-2,5-dimethylpiperazine-1-carboxylate], the results for the EC50 in experiment [1], in experiment [2] and in experiment [3] were < 100 nM, 100 to 500 nM and 100 to 500 nM, respectively.

`Cc1cn(-c2cccc(C(F)(F)F)c2)c2ncnc(N3C[C@@H](C)N(C(=O)OC(C)(C)C)C[C@@H]3C)c12` [Compound 667, tert-butyl (2R,5S)-2,5-dimethyl-4-(5-methyl-7-(3-(trifluoromethyl)phenyl)-7H-pyrrolo[2,3-d]pyrimidin-4-yl)piperazine-1-carboxylate]: the EC50 in experiment [1] is < 100 nM; in experiment [2], 100 to 500 nM; in experiment [3], < 100 nM.

As to `Cc1cn(-c2ccccc2)c2ncnc(N3C[C@@H](C)N(C(=O)OC(C)(C)C)C[C@@H]3C)c12` [Compound 668, tert-butyl (2R,5S)-2,5-dimethyl-4-(5-methyl-7-phenyl-7H-pyrrolo[2,3-d]pyrimidin-4-yl)piperazine-1-carboxylate], the EC50 in experiment [1] lay in the range of 100 to 500 nM; in experiment [2] it was 500 to 2000 nM; in experiment [3] it was 100 to 500 nM.

For `Cc1cn(-c2cccc(C#N)c2)c2ncnc(N3C[C@@H](C)N(C(=O)OC(C)(C)C)C[C@@H]3C)c12` [Compound 669, tert-butyl (2R,5S)-4-(7-(3-cyanophenyl)-5-methyl-7H-pyrrolo[2,3-d]pyrimidin-4-yl)-2,5-dimethylpiperazine-1-carboxylate], the EC50 in experiment [1] was < 100 nM; in experiment [2], 500 to 2000 nM; in experiment [3], < 100 nM.

In the case of `Cc1cn(-c2cc(F)cc(F)c2)c2ncnc(N3C[C@@H](C)N(C(=O)OC(C)(C)C)C[C@@H]3C)c12` [Compound 670, tert-butyl (2R,5S)-4-(7-(3,5-difluorophenyl)-5-methyl-7H-pyrrolo[2,3-d]pyrimidin-4-yl)-2,5-dimethylpiperazine-1-carboxylate], the results for the EC50 in experiment [1], in experiment [2] and in experiment [3] were 100 to 500 nM, 500 to 2000 nM and < 100 nM, respectively.

Turning to `Cc1cn(-c2cccc(Cl)c2)c2ncnc(N3C[C@@H](C)N(C(=O)OC(C)(C)C)C[C@@H]3C)c12` [Compound 671, tert-butyl (2R,5S)-4-(7-(3-chlorophenyl)-5-methyl-7H-pyrrolo[2,3-d]pyrimidin-4-yl)-2,5-dimethylpiperazine-1-carboxylate], the EC50 in experiment [1] was < 100 nM; in experiment [2], 100 to 500 nM; in experiment [3], < 100 nM.
